We go through one compound from patent US5714496A, “Quinuclidine derivatives as squalene synthase inhibitors” (Zeneca Limited, priority 1992, dated 1998).

Experiment [1] has as its system de novo hepatic cholesterol synthesis from 14C-acetate. Description: Acute rat cholesterol synthesis assay. As to conditions: plasma cholesterol specific radioactivity after ip [2-14C]-acetate given 1 hour after the compound. Format: in vivo. The protocol: (b) Acute rat cholesterol synthesis assay.
This is an acute in vivo test in the rat to measure de novo hepatic cholesterol synthesis from exogenously administered ^14 C-acetate.
Female rats (35-55 g) are housed in reverse lighting conditions (red light from 0200 h-1400 h) for a period of about 2 weeks prior to test. Animals are allowed free access to chow and drinking water throughout this period. At test, animals should weigh 125-150 g.
Test compounds may be administered by oral gavage, dissolved or suspended in 0.5% polysorbate, or by ip or iv dosing. Control animals receive vehicle alone. After 1 hour the rats are injected ip with 25 μCi [2-^14 C]-acetate (NEN DUPONT, specific activity, 45-60 mCi/mmol NEC-085H, or AMERSHAM specific activity, 50-60 mCi/mmol CFA 14) in a volume of 0.25 ml saline (100 μCi/ml). After a further hour, rats are terminally anaesthetised with halothane and a blood sample obtained from the abdominal vena cava.
1 ml of plasma is lyophilised and then saponified in 2 ml ethanolic KOH (1 part 33% KOH, 9 parts ethanol) at 75° C. for 2 hours. After addition of an equal quantity of water, non-saponifiable lipids are extracted with two 5 ml volumes of hexane. The hexane extracts are evaporated to dryness and the residues dissolved in ethanol to determine cholesterol specific radioactivity. ED50 values can be determined in the standard way.

The test system of experiment [2] is squalene synthase (rat liver microsomal protein). In words: Inhibition of squalene synthase (squalene formation from tritiated farnesyl pyrophosphate). Format: biochemical. The following applies: at 2.5 μM; rat liver microsomes, 20 μM [3H]-farnesyl pyrophosphate, 15 min, 37° C. The protocol: (a) Inhibition of Squalene synthase
In this test, the ability of a compound to prevent the formation of squalene from a radioactive substrate (tritiated farnesyl pyrophosphate) is assessed.
The test compound is incubated at a concentration of 25 micromolar in 200 μl of a buffered solution containing potassium phosphate (50 mM), MgCl2 (4.95 mM), KF (9.9 mM), NADPH (0.9 mM) and rat liver microsomal protein (20 μg). Rat liver microsomes are prepared by the method described in published European Patent Application No. 324,421 and stored in liquid nitrogen prior to assay. Assay vials are kept at 37° C. throughout the incubation.
The reaction is started with the addition of the substrate (1-[^3 H]-farnesyl pyrophosphate), final concentration 20 μM, and stopped after 15 minutes reaction time with the addition of 50 μl of 4% KOH. The reaction products are separated from unreacted substrate after application to a C-18 octadecyl 1 ccBond column (Analytichem Int product No. 617101). An aqueous fraction is eluted with 250 μl of 0.1M KOH. Squalene is then eluted with 1.0 ml 10% ethylacetate in hexane and radioactivity determined. The difference in radioactivity in the presence and absence of the test compound is used to determine the level of inhibition. […] The IC50 can then be determined from a plot of percentage inhibition against concentration of test compound.
Background: Microsomes from liver hold many membrane-bound enzymes, among them those of drug oxidation.

The structures appear in SMILES notation.

The term ED50 denotes the dose at which the effect has come halfway, by size or by number of responders. For `OC1(C#Cc2ccc(-c3ccccn3)cc2)CN2CCC1CC2` (centres unmarked) [Example 2, 3-[2-(4-[2-pyridyl]phenyl)ethynyl]-3-hydroxyquinuclidine], in experiment [1], the 50% effective dose (ED50) is 8 mg/kg. Further, in experiment [2], the “inhibition of squalene synthase” value is reported as “about 98%”.
